The values that follow are results of earlier work, collected in patent US20090023668A1, “Method for treating blepharitis” (priority 2006, published 2009).

For this series the following is noted: administered to an ocular area at a concentration of 0.1%.

Take `C[C@@H]1C[C@H]2[C@@H]3CCC4=CC(=O)C=C[C@]4(C)[C@@]3(F)[C@@H](O)C[C@]2(C)[C@@]1(O)C(=O)CO` [dexamethasone]: the “effect on intraocular pressure” value is listed as “can result in an increase in intraocular pressure”.
